How the values were obtained:
[1] = test system: peritoneal resident macrophages (PRM); assay: In vivo treatment/ex vivo PRM activation, TNFα and IL-6 in supernatant; design: species or system hVISTA mice; settings: for potency in PRM cytokine model when dosed 7 days early (conclusions) / controlling cytokine response in PRM when dosed 14 days early (conclusions): linker/payloads as anti-VISTA conjugates; for preventing ex vivo induction of TNFα and IL-6 in PRM: Experiment 9: linker payloads as conjugates, 7 days post 0.2 mg/Kg of GC payload, supernatant 24h
Protocol: Based thereon we developed a model to allow us to evaluate long-term anti-inflammatory impact of ADC on specific target populations, such as PRMs. […] In the absence of GC treatment, after 2h PRMs become highly activated as shown by increases in cytokine production. […] The objective of these studies was to evaluate the efficacy and pharmacodynamic range of INX human VISTA antibodies conjugated to a glucocorticoid payload as compared to free Dex.
After euthanasia, mice were injected in the peritoneal cavity with 7 ml of PBS/0.5% BSA/2 mM EDTA. After a brief massage of the peritoneum, a small incision was performed and the peritoneal lavage collected. PRM were isolated using negative selection (Miltenyi kit, ref 130-110-434). Spleen were dissected and dissociated mechanically; monocytes were isolated using […] (Stem Cell, EasySep™ Mouse CD11b Positive Selection Kit II).
PRMs were resuspended in RPMI 1640 with 10% FBS, 10 mM Hepes, Penicillin/Streptomycin and glutamine and 100,000 cells were plated per well in a 96-well tissue culture plate. Supernatants were collected at 2 and 24h post plating and stored at −80° C. […]
• BioLegend (cat #430904) ELISA MAX Deluxe Set Mouse TNF-α • BioLegend (cat #431304) ELISA MAX Deluxe Set Mouse IL-6
ELISAs were conducted following the manufacturer's included protocol.

FKBP5 = FKBP5 transcription in peritoneal resident macrophages (PRM) and spleen cells after in vivo treatment; design: species or system hVISTA mice; settings: linker payloads as anti-VISTA conjugates; for FKBP5 induction in splenic cells (conclusions): day 1, 7, 14
[2] = test system: LPS stimulated human PBMCs; assay: LPS stimulated human PBMC, IL-1β and IL-6 ELISA; format: cell-based
Summary of the method: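 Human PBMC (1-2 healthy donors), 150,000 cells/well, treated with test agents at 1,000 nM down to 1 nM or 0.2 nM, in duplicate. LPS at 1 ng/ml added immediately after free payload or 4 h after conjugates; IL-1β and IL-6 in supernatants measured by ELISA.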

human PBMC = assay: Cytokine production (IL-1β, IL-6) at 24 hr by human PBMC incubated with 1 ng/mL LPS; format: cell-based; settings: free steroid payloads, serial dilutions, 1 ng/mL LPS, 24 hr
Summary of the method: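 Human PBMC were stimulated with 1 ng/mL LPS together with serial dilutions of steroid payloads or glucocorticoid conjugates, spanning up to 8,000 nM down to 0.032 nM depending on the series. IL-1β and IL-6 were measured at 24 hr from technical duplicates, with 1-2 donors. Values above the ULOQ were extrapolated.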

Row | Compound | potency in PRM cytokine model when dosed 7 days early (conclusions) [1] | FKBP5 induction when dosed 14 days early (conclusions) (FKBP5) | FKBP5 induction in splenic cells (conclusions) (FKBP5) | inhibition of IL-1β production (human PBMC) | further results
1 | C[C@H](NC(=O)CBr)C(=O)N[C@@H](C)C(=O)NC12CC(Cc3ccc([C@@H]4O[C@@H]5C[C@H]6[C@@H]7CCC8=CC(=O)C=C[C@]8(C)[C@H]7[C@@H](O)C[C@]6(C)[C@]5(C(=O)CO)O4)cc3)(C1)C2 [INX R, (S)-2-(2-bromoacetamido)-N—((S)-1-((3-(4-((6aR,6bS,7S,8aS,8bS,10R,11aR, 12aS,12bS)-7-hydroxy-8b-(2-hydroxyacetyl)-6a,8a-dimethyl-4-oxo-2,4,6a,6b,7,8,8a,8b,11a,12,12a,12b-dodecahydro-1H-naphtho[2′,1′:4,5]indeno[1,2-d][1,3]dioxol-10-yl)benzyl)bicyclo[1.1.1]pentan-1-yl)amino)-1-oxopropan-2-yl) propanamide] | show similar potency when dosed 7 days early |  |  |  | 
2 | C[C@]12C=CC(=O)C=C1[C@@H](F)C[C@H]1[C@@H]3C[C@H]4O[C@@H](c5ccc(CC67CC(NC(=O)[C@H](CCC(=O)O)NC(=O)CNC(=O)CBr)(C6)C7)cc5)O[C@@]4(C(=O)CO)[C@@]3(C)C[C@H](O)[C@@]12F [INX S, (S)-4-(2-(2-bromoacetamido)acetamido)-5-((3-(4-((2S,6aS,6bR,7S,8aS,8bS, 10R,11aR,12aS,12bS)-2,6b-difluoro-7-hydroxy-8b-(2-hydroxyacetyl)-6a,8a-dimethyl-4-oxo-2,4,6a,6b,7,8,8a,8b,11a,12,12a,12b-dodecahydro-1H-naphtho[2′,1′:4,5]indeno[1,2-d][1,3]dioxol-10-yl)benzyl)bicyclo[1.1.1]pentan-1-yl)amino)-5-oxopentanoic acid] | remarkably more potent than payloads INX P and INX R when dosed 7 days early | still display significant potency when dosed 14 days early in regard to FKBP5 induction | Significant FKBP5 induction is seen at day 1, 7, and 14 in splenic cells |  | preventing ex vivo induction of TNFα and IL-6 in PRM [1]: remarkable long-term potency in controlling cytokine responses; controlling cytokine response in PRM when dosed 14 days early (conclusions) [1]: significant potency in controlling cytokine response in PRM when dosed 14 days early
3 | C[C@]12C=CC(=O)C=C1CC[C@@H]1[C@@H]2[C@@H](O)C[C@@]2(C)[C@H]1C[C@H]1O[C@@H](c3ccc(CC45CC(NC(=O)[C@H](CCC(=O)O)NC(=O)CNC(=O)CBr)(C4)C5)cc3)O[C@]12C(=O)COP(=O)(O)O [INX T, (S)-4-(2-(2-bromoacetamido)acetamido)-5-((3-(4-((6aR,6bS,7S,8aS,8bS,10R,11aR,12aS,12bS)-7-hydroxy-6a,8a-dimethyl-4-oxo-8b-(2-(phosphonooxy)acetyl)-2,4,6a,6b,7,8,8a,8b,11a,12,12a,12b-dodecahydro-1H-naphtho[2′,1′:4,5]indeno[1,2-d][1,3]dioxol-10-yl)benzyl)bicyclo[1.1.1]pentan-1-yl)amino)-5-oxopentanoic acid] |  | still display significant potency when dosed 14 days early in regard to FKBP5 induction | Significant FKBP5 induction is seen at day 1, 7, and 14 in splenic cells |  | controlling cytokine response in PRM when dosed 14 days early (conclusions) [1]: significant potency in controlling cytokine response in PRM when dosed 14 days early
4 | C[C@]12C=CC(=O)C=C1CC[C@@H]1[C@@H]2[C@@H](O)C[C@@]2(C)[C@H]1C[C@H]1O[C@@H](C34CC(Cc5cccc(NC(=O)[C@H](CCC(=O)O)NC(=O)CNC(=O)CBr)c5)(C3)C4)O[C@]12C(=O)CO [INX O, (S)-4-(2-(2-bromoacetamido)acetamido)-5-((3-((3-((6aR,6bS,7S,8aS,8bS,10R,11aR,12aS,12bS)-7-hydroxy-8b-(2-hydroxyacetyl)-6a,8a-dimethyl-4-oxo-2,4,6a,6b,7,8,8a,8b,11a,12,12a,12b-dodecahydro-1H-naphtho[2′,1′:4,5]indeno[1,2-d][1,3]dioxol-10-yl)bicyclo[1.1.1]pentan-1-yl)methyl)phenyl)amino)-5-oxopentanoic acid] | very limited and non-significant potency when conjugated to INX201 |  |  |  | preventing ex vivo induction of TNFα and IL-6 in PRM [1]: little and non-significant impact on the PRM cytokine response
5 | C[C@]12C=CC(=O)C=C1CC[C@@H]1[C@@H]2[C@@H](O)C[C@@]2(C)[C@H]1C[C@H]1O[C@@H](c3ccc(OC4CC5(CC(NC(=O)[C@H](CCC(=O)O)NC(=O)CNC(=O)CBr)C5)C4)cc3)O[C@]12C(=O)CO (stereo partly drawn) [INX A4, (S)-4-(2-(2-bromoacetamido)acetamido)-5-((6-(4-((6aR,6bS,7S,8aS,8bS,10R,11aR,12aS,12bS)-7-hydroxy-8b-(2-hydroxyacetyl)-6a,8a-dimethyl-4-oxo-2,4,6a,6b,7,8,8a,8b,11a,12,12a,12b-dodecahydro-1H-naphtho[2′,1′:4,5]indeno[1,2-d][1,3]dioxol-10-yl)phenoxy)spiro[3.3]heptan-2-yl)amino)-5-oxopentanoic acid] |  | still display significant potency when dosed 14 days early in regard to FKBP5 induction | only demonstrate significant induction at day 1, and 7 |  | potency of conjugated linker payloads over INX J (conclusions) [2]: enhanced potency
6 | C[C@]12C=CC(=O)C=C1CC[C@@H]1[C@@H]2[C@@H](O)C[C@@]2(C)[C@H]1C[C@H]1O[C@@H](c3ccc(Cc4cccc(NC(=O)[C@H](CCC(=O)O)NC(=O)CNC(=O)CBr)c4)cc3)O[C@]12C(=O)CO [INX J, (S)-4-(2-(2-bromoacetamido)acetamido)-5-((3-(4-((6aR,6bS,7S,8aS,8bS,10R,11aR,12aS,12bS)-7-hydroxy-8b-(2-hydroxyacetyl)-6a,8a-dimethyl-4-oxo-2,4,6a,6b,7,8,8a,8b,11a,12,12a,12b-dodecahydro-1H-naphtho[2′,1′:4,5]indeno[1,2-d][1,3]dioxol-10-yl)benzyl)phenyl)amino)-5-oxopentanoic acid, reference compound] | show similar potency when dosed 7 days early |  |  |  | 
7 | C[C@]12C=CC(=O)C=C1CC[C@@H]1[C@@H]2[C@@H](O)C[C@@]2(C)[C@H]1C[C@H]1O[C@@H](c3ccc(Cc4cnc(N)s4)cc3)O[C@]12C(=O)CO [INX-SM-1, (6aR,6bS,7S,8aS,8bS,10R,11aR,12aS,12bS)-10-(4-((2-aminothiazol-5-yl)methyl)phenyl)-7-hydroxy-8b-(2-hydroxyacetyl)-6a,8a-dimethyl-1,2,6a,6b,7,8,8a,8b,11a,12,12a,12b-dodecahydro-4H-naphtho[2′,1′:4,5]indeno[1,2-d][1,3]dioxol-4-one] |  |  |  | inhibit | inhibition of IL-6 production (human PBMC): inhibit; inhibition of IL-1β and IL-6 production ([2]; Experiment 1: free payload 1000-1 nM, 1 ng/ml LPS, 24 hr, n=1 donor): inhibit both IL-1β and IL-6 production; inhibition of IL-1β production ([2]; Experiment 2: free payload 1000-1 nM, 24 hr, n=1 donor): show inhibition in IL-1β production
8 | C[C@]12C=CC(=O)C=C1CC[C@@H]1[C@@H]2[C@@H](O)C[C@@]2(C)[C@H]1C[C@H]1O[C@@H](c3ccc(CC4CC(N)C45CCC5)cc3)O[C@]12C(=O)CO (stereo partly drawn) [INX-SM-45, (6aR,6bS,7S,8aS,8bS,10R,11aR,12aS,12bS)-10-(4-((3-aminospiro[3.3]heptan-1-yl)methyl)phenyl)-7-hydroxy-8b-(2-hydroxyacetyl)-6a,8a-dimethyl-1,2,6a,6b,7,8,8a,8b,11a,12,12a,12b-dodecahydro-4H-naphtho[2′,1′:4,5]indeno[1,2-d][1,3]dioxol-4-one 2,2,2-trifluoroacetate] |  |  |  | more modest inhibition | inhibition of IL-1β production ([2]; Experiment 8: free payload 1000-0.5 nM): more modest inhibition of cytokine production
9 | C[C@]12C=CC(=O)C=C1CC[C@@H]1[C@@H]2[C@@H](O)C[C@@]2(C)[C@H]1C[C@H]1O[C@@H](c3ccc(CC4CC5(CNC5)C4)cc3)O[C@]12C(=O)CO [INX-SM-47, (6aR,6bS,7S,8aS,8bS,10R,11aR,12aS,12bS)-10-(4-((2-azaspiro[3.3]heptan-6-yl)methyl)phenyl)-7-hydroxy-8b-(2-hydroxyacetyl)-6a,8a-dimethyl-1,2,6a,6b,7,8,8a,8b,11a,12,12a,12b-dodecahydro-4H-naphtho[2′,1′:4,5]indeno[1,2-d][1,3]dioxol-4-one 2,2,2-trifluoroacetate] |  |  |  | weakly inhibit | inhibition of IL-6 production (human PBMC): weakly inhibit; inhibition of IL-1β and IL-6 [2]: weakly inhibit IL-1β and IL-6

Reference: patent US20250108119A1, “NOVEL STEROID PAYLOADS, STEROID LINKERS, ADCs CONTAINING AND USE THEREOF” (IMMUNEXT, INC., priority 2021, published 2025)
